# Measured values published in ChEMBL document CHEMBL1201862, “PubChem BioAssay data set” (2004).
# Activity calls are given as the source filed them.
# Assays:
# Exodeoxyribonuclease V = biological target: T1, Exodeoxyribonuclease V (Escherichia coli (strain K12), UniProt P04993+P07648+P08394); experiment: RecBCD inhibition via phage-restricted bacterial growth – absorbance, V66 E. coli, mutant T4 phage, counter-screen for AddAB inhibitor project, dose response (AID 492957); type: functional, cell-based, Escherichia coli str. K-12 substr. MG1655
# T1 sequence (P04993 whole entry): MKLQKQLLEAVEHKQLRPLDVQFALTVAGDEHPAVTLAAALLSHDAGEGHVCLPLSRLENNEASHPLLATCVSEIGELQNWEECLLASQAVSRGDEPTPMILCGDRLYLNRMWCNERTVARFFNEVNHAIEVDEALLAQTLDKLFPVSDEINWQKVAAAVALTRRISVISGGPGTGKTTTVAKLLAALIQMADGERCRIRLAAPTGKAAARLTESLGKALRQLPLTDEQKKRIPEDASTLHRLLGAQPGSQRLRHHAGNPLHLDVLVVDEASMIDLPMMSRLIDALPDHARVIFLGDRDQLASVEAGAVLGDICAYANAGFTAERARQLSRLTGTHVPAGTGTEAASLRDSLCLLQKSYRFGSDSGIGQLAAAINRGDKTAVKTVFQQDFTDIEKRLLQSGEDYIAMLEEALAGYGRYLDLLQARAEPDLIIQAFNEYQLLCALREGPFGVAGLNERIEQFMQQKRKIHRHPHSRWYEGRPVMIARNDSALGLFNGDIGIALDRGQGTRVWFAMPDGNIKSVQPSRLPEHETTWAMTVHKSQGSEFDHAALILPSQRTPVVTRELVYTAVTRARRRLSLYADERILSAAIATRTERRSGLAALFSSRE
# T1 sequence (P07648 whole entry): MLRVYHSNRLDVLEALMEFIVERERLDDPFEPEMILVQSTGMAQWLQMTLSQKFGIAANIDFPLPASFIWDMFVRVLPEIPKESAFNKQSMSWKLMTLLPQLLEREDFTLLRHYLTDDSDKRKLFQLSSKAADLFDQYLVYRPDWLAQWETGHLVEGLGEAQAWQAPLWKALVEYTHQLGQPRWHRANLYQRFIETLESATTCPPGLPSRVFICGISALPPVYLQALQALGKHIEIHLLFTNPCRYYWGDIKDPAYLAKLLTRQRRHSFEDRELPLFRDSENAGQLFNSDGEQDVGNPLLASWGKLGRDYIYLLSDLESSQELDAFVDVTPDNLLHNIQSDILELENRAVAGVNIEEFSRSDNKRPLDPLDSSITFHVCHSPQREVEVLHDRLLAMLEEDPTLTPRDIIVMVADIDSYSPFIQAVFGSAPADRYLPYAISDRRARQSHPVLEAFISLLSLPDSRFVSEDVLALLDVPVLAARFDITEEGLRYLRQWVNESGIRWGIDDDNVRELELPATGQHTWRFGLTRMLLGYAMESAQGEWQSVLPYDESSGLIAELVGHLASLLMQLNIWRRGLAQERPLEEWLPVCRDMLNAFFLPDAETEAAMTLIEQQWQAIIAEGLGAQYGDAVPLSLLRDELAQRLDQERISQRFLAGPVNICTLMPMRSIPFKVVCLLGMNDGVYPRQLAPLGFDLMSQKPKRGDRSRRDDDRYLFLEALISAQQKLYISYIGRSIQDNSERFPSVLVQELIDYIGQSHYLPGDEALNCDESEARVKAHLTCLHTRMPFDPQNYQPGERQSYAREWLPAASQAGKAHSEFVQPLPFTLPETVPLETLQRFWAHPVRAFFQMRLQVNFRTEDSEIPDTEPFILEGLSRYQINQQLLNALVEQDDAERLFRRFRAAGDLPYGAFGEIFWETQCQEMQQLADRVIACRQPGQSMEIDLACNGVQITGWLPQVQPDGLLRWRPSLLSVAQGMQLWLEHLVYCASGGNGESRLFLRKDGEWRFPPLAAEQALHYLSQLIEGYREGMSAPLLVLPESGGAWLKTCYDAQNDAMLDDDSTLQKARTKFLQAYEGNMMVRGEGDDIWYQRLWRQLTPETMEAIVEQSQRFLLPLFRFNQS
# T1 sequence (P08394 whole entry): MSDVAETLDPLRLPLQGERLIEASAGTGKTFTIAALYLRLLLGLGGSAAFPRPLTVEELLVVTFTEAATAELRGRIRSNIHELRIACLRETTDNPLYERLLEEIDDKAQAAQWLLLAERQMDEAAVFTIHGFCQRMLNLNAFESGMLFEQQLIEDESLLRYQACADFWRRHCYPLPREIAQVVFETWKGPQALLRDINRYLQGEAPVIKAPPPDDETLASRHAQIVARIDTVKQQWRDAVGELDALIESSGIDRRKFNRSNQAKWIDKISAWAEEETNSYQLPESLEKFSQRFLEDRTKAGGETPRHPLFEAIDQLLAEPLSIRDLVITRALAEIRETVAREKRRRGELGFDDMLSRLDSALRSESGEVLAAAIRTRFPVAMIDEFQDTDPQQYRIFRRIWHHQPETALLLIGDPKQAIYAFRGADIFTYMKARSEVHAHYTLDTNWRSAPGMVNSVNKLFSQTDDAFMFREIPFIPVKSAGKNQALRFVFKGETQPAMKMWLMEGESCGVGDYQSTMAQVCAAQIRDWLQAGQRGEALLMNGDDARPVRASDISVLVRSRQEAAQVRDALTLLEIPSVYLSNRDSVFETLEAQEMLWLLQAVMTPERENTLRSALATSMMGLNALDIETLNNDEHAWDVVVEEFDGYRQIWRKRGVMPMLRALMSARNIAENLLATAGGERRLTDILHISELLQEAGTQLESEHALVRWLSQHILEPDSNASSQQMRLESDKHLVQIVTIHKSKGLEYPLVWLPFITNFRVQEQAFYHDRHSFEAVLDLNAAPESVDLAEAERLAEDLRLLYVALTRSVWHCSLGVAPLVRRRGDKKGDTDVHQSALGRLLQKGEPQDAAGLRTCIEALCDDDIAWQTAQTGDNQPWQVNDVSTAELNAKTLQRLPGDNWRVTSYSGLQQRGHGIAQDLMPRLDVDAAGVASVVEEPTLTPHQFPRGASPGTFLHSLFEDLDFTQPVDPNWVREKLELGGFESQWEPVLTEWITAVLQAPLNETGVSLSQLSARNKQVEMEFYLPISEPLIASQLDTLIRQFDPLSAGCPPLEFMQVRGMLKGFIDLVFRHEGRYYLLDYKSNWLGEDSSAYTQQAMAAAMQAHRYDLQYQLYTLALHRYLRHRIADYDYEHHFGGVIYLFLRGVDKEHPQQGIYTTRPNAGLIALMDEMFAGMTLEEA
# cells = type: functional, cell-based
# [1] = off-target signal loss in HeLa-CEM21 co-culture – HeLa F-luc CTL cells, cherry-picked, counter-screen for HIV-1 Env fusion inhibitor project, dose response (AID 652040); type: functional, cell-based;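 note: potency for signal decrease marking cytotoxic or nonspecific inhibition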
# [2] = decrease of insulin promoter-GFP reporter – imaging, high-content screening, mouse beta cells (AID 1628); type: functional; settings: MIN6
# 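Throughout, for EC50: proteasome chymotrypsin-like activity measured in U2OS cells; potency is for inhibition of proteasome activity.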
Structure (SMILES),IC50 (Exodeoxyribonuclease V),EC50 (cells),AC50 [1],IC50 [2]
CCCCC(=O)NC(c1ccccc1)c1ccc2cccnc2c1O (stereo not given),> 118 µM (inactive),> 350 µM (not active),,
CC(=O)N(Cc1ccc(F)cc1)C1=C(NCCc2ccccc2)C(=O)c2ccccc2C1=O,,,5.21 µM (active),
O=C(/C=C/c1cccs1)NC(=S)NNC(=O)c1ccccc1O,114 µM (inactive),,,2.78 µM (active)
